Where a name gives a salt, the structure may show the parent alone. Read-outs that look alike come from different tables or passages of the source.

Series [1] addresses T1, CRAC channels (Homo sapiens (Human), UniProt Q96D31). As to the kind of experiment: In-vitro CRAC channel inhibition assay in Jurkat cells (thapsigargin-induced calcium influx). It counts as cell-based. The procedure:
Inhibition of CRAC channels was determined following thapsigargin (Sigma, Cat # T9033) induced endoplasmic calcium release in Jurkat cells. (see Yasurio Yonetoky et. al Bio. & Med. Chem. 14 (2006) 4750-4760). Cells were centrifuged and resuspended in equal volumes ° f Ca^2+ and Mg^2+ free Hanks buffer and Fluo-8 NW dye (ABD Bioquest, Inc., Sunnyvale, Calif.) loading solution at 2×10^5 cells/100 μl/well in 96-well black plate. Plate is incubated at 37° C./5% CO2 for 30 mM followed by further 15 mM incubation at room temperature. Test compounds (DMSO stocks diluted in Ca^2+ and Mg^2+ free Hanks buffer) at desired concentrations were added to the wells and incubated for […]. Thapsigargin (1 μM final concentration) was added to the wells and incubated for 15 min to inhibit the Sarco-endoplasmic reticulum Ca^2+ ATPase pump thereby depleting endoplasmic calcium and raising cytosolic calcium concentrations. Store-operated calcium entry was initiated by adding extracellular Ca^2+ to a final concentration of 1.8 mM. Fluorescence was monitored over […] on a plate reader (BMG Labtech., Germany) with excitation at 485 nm and an emission wavelength at 520 nm. Data were analyzed using GraphPad Prism. IC50 for each compound was determined based on the percent inhibition of thapsigargin-induced calcium influx into cells.

Series [2] relates to IL-2. As to the kind of experiment: Inhibition of IL-2 release in human whole blood. Conditions: Concanavalin A + PMA, 20 h, read-out: IC 50 Human Whole Blood IL-2. The series is classed as cell-based. The procedure:
(§1) Inhibition of cytokine IL-2, IL-4, IL-5 and TNF α was determined as described below.
(§2) Freshly collected HWB was diluted with RPMI medium (1:4.5) and added to a 96-well plate. Wells were incubated with desired concentrations of the inhibitor for 15 min. Cytokine release was induced by the addition of Concanavalin A (25 μg/ml)+Phorbol Myristate Acetate (50 ng/ml) for IL-2 & TNFα or with Phytohemagglutinin (5 μg/ml) for IL-4 & IL-5 and incubated at 37° C. in an atmosphere containing […]. Supernatant was collected after 20 h (IL-2 & TNFα) or 48 h (IL-4 & IL-5) for estimation of cytokines by ELISA. Data were analysed using GraphPad Prism. IC50 values for each compound were determined based on the percent inhibition due to the test compound compared to the control.

The test system of series [3] is TNFα. As to the kind of experiment: Inhibition of TNFα release in human whole blood. The series is classed as cell-based. Conditions: Concanavalin A + PMA, 20 h, read-out: IC 50 Human Whole Blood TNFα. The procedure:
as §1, §2

Series [4] has as its system NCI-H460 human non-small cell lung cancer xenografts. As to the kind of experiment: Anti-tumor efficacy in female Balb/c nude mice bearing NCI-H460 xenografts. The series is classed as in vivo.
The nature of series [5]: Body weight in the NCI-H460 xenograft study. It counts as in vivo. Conditions: Balb/c nude mice.
The target of series [6] is T1, CRAC channels. Nature of the series: In-vitro CRAC channel inhibition assay in NCI-H460 cancer cell line (thapsigargin-induced calcium influx). Conditions: NCI-H460 cells; for inhibition at 1 µM: read-out: NCI-H460 Cell Ca assay % inhibition @ 1 μM; for IC50: read-out: NCI-H460 Cell Ca assay IC 50 nM. It counts as cell-based. The procedure:
Inhibition of CRAC channels was determined following thapsigargin (Sigma, Cat # T9033) induced endoplasmic calcium release in NCI-H460 cells (National Centre For Cell Science (NCCS), Pune).
Cells (30,000 per well) were plated overnight in complete RPMI medium. Medium was substituted with Ca^2+ and Mg^2+ free Hanks buffer and Fluo-8 NW dye (ABD Bioquest, Inc., Sunnyvale, Calif.) loading solution in 96-well black plate. Plate was incubated at 37° C./5% CO2 for 30 min followed by further 15 mM incubation at room temperature. Test compounds (DMSO stocks diluted in Ca^2+ and Mg^2+ free Hanks buffer) at desired concentrations were added to the wells and incubated for 15 min. Thapsigargin (1 μM final concentration) was added to the wells and incubated for 15 min to inhibit the Sarco-endoplasmic reticulum Ca^2+ ATPase pump thereby depleting endoplasmic calcium and raising cytosolic calcium concentrations. Store-operated calcium entry was initiated by adding extracellular Ca^2+ to a final concentration of 2.5 mM. Fluorescence was monitored over 30 mM on a plate reader (BMG Labtech., Germany) with excitation at 485 nm and an emission wavelength at 520 nm. Data were analyzed using GraphPad Prism. IC50 for each compound was determined based on the percent inhibition of Thapsigargin-induced calcium influx into cells.
For Methodology Refer 1B.

In series [7] the test system is NCI-H460 cells. As to the kind of experiment: In-vitro cell proliferation assay in NCI-H460 cancer cell line (MTT). It counts as cell-based, human. Conditions: for IC50: read-out: NCI-H460 Cell line assay G1 50 nM; for inhibition at 10 µM: NCI-H460, 10 μM. The procedure: Growth inhibition assays were carried out using 10% FBS supplemented media. Cells were seeded at a concentration of 5000 cells/well in a 96-well plate. Test compound at a concentration range from 0.01 to 10000 nM were added after 24 h. Growth was assessed using the 3-[4,5-dimethylthiazol-2-yl]-2,5-diphenyltetrazolium bromide (MTT) dye reduction test at 0 h (prior to the addition of the test compound) and 48 h after the addition of test compound. Absorbance was read on a Fluostar Optima (BMG Labtech, Germany) at a wave length of 450 nm. Data were analysed using GraphPad Prism. IC-50 for each compound was determined based on the % inhibition due to the test compound compared to the control.
For methods of cell proliferation assay, see, for example, Mosmann. T., Journal of Immunological Methods, 65(1-2), 55-63, (1983).
The effect of CRAC and/or STIM protein on the proliferation and viability of lung cancer cells was determined as follows.
For Methodology Refer 1C.

Series [8] has as its system CRAC channels over the voltage operated channels (VOC). Conditions: Yonetoky et al.; cited from earlier work.
The subject of series [9] is Orai1. Nature of the series: Orai1 mRNA expression in NCI-H460 cells by PCR. It counts as cell-based, human. Conditions: 1 and 10 μM, qualitative PCR. The procedure: (§3) Orai1 and Stim1 expression in non-small cell lung cancer cell lines was confirmed by PCR (polymerase chain reaction). Briefly, 5×10^6 cells treated with desired concentrations of the test article were harvested, pelleted, and resuspended in 1 ml TRI Reagent (Sigma, St. Louis, Mo.) and total RNA was extracted as per the manufacturer's instructions. cDNA was prepared using the First Strand cDNA synthesis and amplified using the following primer pairs:
(§4) Bands were resolved by agarose gel electrophoresis and visualized using SYBR safe DNA gel stain.
(§5) Orai and Stim expressions were measured using the methodology described in Example 1 above in NCI-H460 cells but with 1 and 10 μM of compound B.

Series [10] relates to Stim1. As to the kind of experiment: Stim1 mRNA expression in NCI-H460 cells by PCR. It counts as cell-based, human. Conditions: 1 and 10 μM, qualitative PCR. The procedure:
as §3, §4, §5

Series [11] has as its system Stim2. Nature of the series: Stim2 mRNA expression in NCI-H460 cells by PCR. It counts as cell-based, human. Conditions: 1 and 10 μM, qualitative PCR. The procedure: as §3, §4, §5
Series [12] deals with NCI-H460 cells. Nature of the series: Cytotoxicity in NCI-H460 cells (lactate dehydrogenase assay). It counts as cell-based, human. Conditions: 48 h. On the procedure: Cytotoxicity of a test compound (Compound B) was determined using a lactate dehydrogenase assay kit (Cayman Chemicals, MI) as per the manufacturer's instructions with some minor modifications. Briefly, 20,000 cells/well in complete RPMI-1640 media were seeded in a 96-well tissue culture plate and incubated overnight at 37° C. and 5% CO2. The test compound was added to the wells in triplicate at the desired concentrations. Doxorubicin and/or 1% Triton-X were used as a positive control. After 48 h, the media was removed and assayed for lactate dehydrogenase in a colorimetric assay. Optical density was measured on a microplate reader (BMG Labtech., Germany) at 490 nM. Data were analyzed using Graphpad Prism (Graphpad software; San Diego Calif.).

Setting [13] is: 30 mg/kg orally BID for 15 days.

T1 sequence (Q96D31 whole entry): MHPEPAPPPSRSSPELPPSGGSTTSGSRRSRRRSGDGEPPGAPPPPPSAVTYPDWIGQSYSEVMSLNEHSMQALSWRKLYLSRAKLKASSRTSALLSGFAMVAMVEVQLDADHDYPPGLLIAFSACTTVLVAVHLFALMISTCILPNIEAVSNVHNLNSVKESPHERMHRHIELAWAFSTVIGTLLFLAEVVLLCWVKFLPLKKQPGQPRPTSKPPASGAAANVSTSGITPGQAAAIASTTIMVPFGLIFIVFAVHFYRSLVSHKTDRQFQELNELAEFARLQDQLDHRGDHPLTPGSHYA

By inhibition is commonly meant the percentage by which the read-out fell short of the control. Turning to `O=C(Cn1nnc2ccccc21)Nc1ccc(-n2nc(C3CC3)cc2C2CC2)cc1` [Example 6, 2-(1H-benzo[d][1,2,3]triazol-1-yl)-N-[4-(3,5-dicyclopropyl-1H-pyrazol-1-yl)phenyl]acetamide], the values for the IC50 in [1], in series [2] and in [3] were 51.3 nM, 52.2 nM and 165 nM, respectively. Further, in series [1] (1 uM), the inhibition at 1 µM was 94.6%.
Turning to `CC(=O)O[C@H]1C(=O)[C@@]2(C)[C@H]([C@H](OC(=O)c3ccccc3)[C@]3(O)C[C@H](OC(=O)[C@H](O)[C@@H](NC(=O)c4ccccc4)c4ccccc4)C(C)=C1C3(C)C)[C@]1(OC(C)=O)CO[C@@H]1C[C@@H]2O` [taxol, Paclitaxel, reference compound], in series [4] (intravenous administration), the “reduction in tumor growth” value is recorded as 36%. For the same molecule, in series [5] (intravenous administration), the “change in body weight” value is reported as “significant reduction”.
With `O=C(Cn1cnc2ccccc21)Nc1ccc(-n2nc(C(F)(F)F)cc2C2CC2)cc1` [Example 19, 2-(1H-benzo[d]imidazol-1-yl)-N-{4-[5-cyclopropyl-3-(trifluoromethyl)-1H-pyrazol-1-yl]phenyl}acetamide], the inhibition at 1 µM was found to be 69.5% in series [1] (1 uM); 100% in [6]; 100% in series [7] (Homo sapiens, NCI-H460, 1 uM, 48 h). Further, the IC50 in series [6] was less than 200 nM; in [7] (48 h), 148 nM; in [7] (Homo sapiens, NCI-H460, 48 h), less than 200 nM. For the same molecule, the inhibition at 10 µM in [7] (Homo sapiens, 48 h) was determined as 83.6%. In addition, in series [4] (setting [13]), the “reduction in tumor growth” value came to 32%. The “change in body weight” value in series [5] (setting [13]) is reported as “without any significant change”.
Regarding `Cl.O=C(Cc1ccc2ncccc2c1)Nc1ccc(-n2nc(C3CC3)cc2C2CC2)cc1` [Example 10, N-[4-(3,5-dicyclopropyl-1H-pyrazol-1-yl)phenyl]-2-(quinolin-6-yl)acetamide hydrochloride], the “% inhibition (1 uM)” value in series [1] (1 uM) is reported as 100%. Further, the IC50 in series [6] was 72.7 nM.
For `O=C(Nc1ccc(-n2nc(C3CC3)cc2C2CC2)cc1)c1ccc2nccnc2c1` [Example 4, N-[4-(3,5-dicyclopropyl-1H-pyrazol-1-yl)phenyl]quinoxaline-6-carboxamide], the results for the inhibition at 1 µM in series [1] (1 uM) and in series [6] were 85% and 80.7%, respectively. 10 µM produced 41% inhibition in series [7] (Homo sapiens, 48 h).
Consider `O=C(Nc1ccc(-n2nc(C3CC3)cc2C2CC2)cc1)c1ccc2nn[nH]c2c1` [Example 2, N-[4-(3,5-dicyclopropyl-1H-pyrazol-1-yl)phenyl]-1H-benzo[d][1,2,3]triazole-6-carboxamide], for which the IC50 in series [1] was 182 nM; in [2] it was 102 nM; in series [3] it was 148 nM. In addition, the inhibition at 1 µM in series [1] (1 uM) turned out to be 78%; in series [6], 91.1%. In addition, 10 µM produced 34% inhibition in [7] (Homo sapiens, 48 h).
Regarding `O=C(Cn1cnc2ccccc21)Nc1ccc(-n2nc(C3CC3)cc2C2CC2)cc1` [Example 5, 2-(1H-benzo[d]imidazol-1-yl)-N-[4-(3,5-dicyclopropyl-1H-pyrazol-1-yl)phenyl]acetamide], the IC50 was found to be 383 nM in [1]; 79.9 nM in series [6]; 177 nM in [7] (Homo sapiens, NCI-H460, 48 h). Also, in series [1] (1 uM), the inhibition at 1 µM was found to be 88.5%.
Take `O=C(Nc1ccc(-n2nc(C(F)(F)F)cc2C2CC2)cc1)c1ccc2ncccc2c1` [Example 17, N-{4-[5-cyclopropyl-3-(trifluoromethyl)-1H-pyrazol-1-yl]phenyl}quinoline-6-carboxamide hydrochloride]: the inhibition at 1 µM in series [1] (1 uM) worked out at 94%; in series [6], 100%. Moreover, the IC50 in series [7] (Homo sapiens, NCI-H460, 48 h) was 710 nM.
Take `O=C(Cc1ccc2ncccc2c1)Nc1ccc(-n2nc(C(F)(F)F)cc2C2CC2)cc1` [Example 27, N-{4-[5-cyclopropyl-3-(trifluoromethyl)-1H-pyrazol-1-yl]phenyl}-2-(quinolin-6-yl)acetamide Hydrochloride]: the inhibition at 1 µM came out at 100% in series [1] (1 uM) and 98.1% in series [6]. Moreover, the IC50 in series [7] (Homo sapiens, NCI-H460, 48 h) amounted to 358 nM; in [2], 125 nM; in series [3], 118 nM.
Turning to `O=C(Nc1ccc(-n2nc(C3CC3)cc2C2CC2)cc1)c1ccc2ncccc2c1` [Example 3, N-[4-(3,5-dicyclopropyl-1H-pyrazol-1-yl)phenyl]quinoline-6-carboxamide hydrochloride], the inhibition at 1 µM in series [1] (1 uM) and in series [6] was 100% throughout. The IC50 in series [7] (Homo sapiens, NCI-H460, 48 h) turned out to be 261 nM.
In the case of `Cc1nnsc1C(=O)Nc1ccc(-n2nc(C(F)(F)F)cc2C(F)(F)F)cc1` [YM-58483], the “selective index for CRAC channels over VOC” value in series [8] was 31.
Regarding `O=C(Cc1ccc2ncccc2c1)Nc1ccc(-n2nc(C3CC3)cc2C2CC2)cc1` [Example 9, N-[4-(3,5-dicyclopropyl-1H-pyrazol-1-yl)phenyl]-2-(quinolin-6-yl)acetamide], in [1] (1 uM), the inhibition at 1 µM was 100%. The IC50 in series [7] (Homo sapiens, NCI-H460, 48 h) was found to be 270 nM. Further, in [9], the “mRNA expression of Orai1” value was “significantly reduced”. The “mRNA expression of Stim1” value in [10] was “significantly reduced”. Further, the “mRNA expression of Stim2” value in [11] is “significantly reduced”. In addition, the “Cytotoxicity (lactate dehydrogenase in the media)” value in series [12] was “not cytotoxic”.

Values taken from patent publication US8993612B2, “Modulators of calcium release-activated calcium channel and methods for treatment of non-small cell lung cancer” (Rhizen Pharmaceuticals SA, priority 2009, dated 2015).
